Reference: US9271957B2, “Methods of treating or preventing degenerative joint conditions, osteoarthritis, cartilage damage, and related disorders in companion animals” (HILL'S PET NUTRITION, INC., priority 2008, dated 2016)

Legend:
cartilage markers [1] = assay: Serum cartilage (arthritic) markers measured in the blood by ELISA in dogs fed different foods; type: in vivo
cartilage markers [2] = assay: as above; type: in vivo; conditions: for CPII: blood, d 0 as covariate
Experimental: Thirty (30) dogs were used to determine the effect of lipoic acid when compared to an AAFCO control food or a test food containing fish oil.
Biomarker Measurements: Serum cartilage markers were measured using ELISA based kits to determine concentrations of cartilage markers. Day 0 was used as a covariate in the analysis to adjust for baseline values.
Table 2 illustrates the change in blood level of arthritic markers in dogs after being fed a control diet compared with dogs fed a control plus fish oil and a control plus lipoic acid for 30 days and measured again at day 90.
Table 6 illustrates arthritic makers measured in blood samples for dogs after being fed a control diet compared with dogs fed a pet food including lipoic acid for 90 days.

[3] = system: genes related to cartilage and energy metabolism; assay: Differential gene expression profile, whole blood RNA on canine 2 Affymetrix genechips; type: in vivo, dogs
Excerpt: A differential gene expression profile was studied between an AAFCO control food, a food containing fish oil, and a food containing lipoic acid. At a minimum of 1.3 fold change, a list of 1212 genes was generated compared to the AAFCO control and 1896 genes compared to the food containing fish oil at d 30.
RNA Extraction: Total RNAs were isolated from whole blood samples using the PAXgene RNA isolation kit. All measurements were done with the canine 2 Affymetrix genechips. For statistical analysis, all measurements were normalized with RMA. All analysis was preformed using Partek. An ANOVA t-test was performed for genes that are differentially expressed between the control and test foods were selected based on p-value cutoff 0.1, fold change >+/−1.3.
Table 4 illustrates the change in genes related to cartilage metabolism and energy metabolism in dogs after being fed a control diet compared with dogs fed a control plus lipoic acid.

Plasma metabolomics = type: in vivo; conditions: relative to control fed dogs
Experimental: Metabolomics: Plasma metabolites were analyzed and were compared as fold change relative to the control fed dogs.

canine bone cells = assay: Genes related to cartilage metabolism altered by lipoic acid in canine bone cells; type: in vivo, dogs; conditions: 90 days
[4] = Body fat of dogs fed food containing lipoic acid; type: in vivo; conditions: dogs fed a food containing lipoic acid
Excerpt: These two markers are known to increase in dogs with osteoarthritis. […] In other words, dogs fed lipoic acid utilized available glucose more efficiently and shifted their metabolism towards mobilization of fat for energy use. […] The following tables show the difference in fat and weight as well as cartilage markers relative to treatment with lipoic acid.

[5] = vs a similar food without lipoic acid
[6] = lipoic acid vs. control, cartilage metabolism
[7] = lipoic acid vs. control, energy metabolism
[8] = lipoic acid vs. fish oil, cartilage metabolism
[9] = lipoic acid vs. fish oil, energy metabolism

In the case of O=C(O)CCCC[C@@H]1CCSS1 (racemic) [Lipoic acid, lipoic acid], the “Change CPII” value (cartilage markers [1]; Day 30, without covariates) is reported as −95.10, the “Change CTXII” value (cartilage markers [1]; Day 30, without covariates) is reported as −5.60 and the “Change CPII” value (cartilage markers [1]; Day 90, without covariates) is reported as −232.70. For the same compound, the “Change CTXII” value (cartilage markers [1]; Day 90, without covariates) was −0.59, the “CPII” value (cartilage markers [2]; Day 30) was 986.28 ng/mL and the “CPII” value (cartilage markers [2]; Day 90) was 848.0 ng/mL. For the same compound, the immune status markers (cartilage markers [2]; after 90 days) was “decreased”, the “arthritic markers (i.e., CPII and CTXII)” value (cartilage markers [2]; after a 30 day treatment period) was “reduction” and the “arthritic markers (i.e., CPII and CTXII)” value (cartilage markers [2]; after a 90 day period) was “greater reduction”. The “carboxy-terminal crosslinked telopeptide fragment of type II collagen” value (cartilage markers [2]; [5]) was “greater decrease”, the “type II collagen C-propeptide” value (cartilage markers [2]; [5]) was “greater decrease” and the PDK4 gene expression ([3]; dogs fed lipoic acid) was “increasing”. For the same compound, the “glucose transporters gene expression” value ([3]; dogs fed lipoic acid) was “upregulation”, the “Fold change 12-lipooxygenase” value [3, 6] was −1.3 and the “Fold change Chondroitan sulfate synthase 1” value [3, 6] was 1.4. For the same compound, the “Fold change Facilitated glucose transporter 9” value [3, 6] was 1.4, the “Fold change Prolyl hydroxylase alpha 1” value [3, 6] was 1.4 and the “Fold change Prolyl hydroxylase alpha 2” value [3, 6] was 1.3. The “Fold change TIMP1” value [3, 6] was 1.3, the “Fold change chondroitan sulfate proteoglycan 2 (veriscan)” value [3, 6] was 1.5 and the “Fold change heparin sulfate N-deacetylase/N-sulfotransferase 2” value [3, 6] was 1.3. The “Fold change 5′ AMP alpha 1” value [3, 7] was 1.3, the “Fold change 5′ AMP beta 1” value [3, 7] was 1.3 and the “Fold change 5′ AMP gamma 2” value [3, 7] was 1.4. For the same compound, the “Fold change Facilitated glucose transporter 1” value [3, 7] was 1.3, the “Fold change Facilitated glucose transporter 6” value [3, 7] was 1.3 and the “Fold change Fatty acid desaturase 1” value [3, 7] was 1.9. For the same compound, the “Fold change Hexokinase 3” value [3, 7] was 1.3, the “Fold change PDK4” value [3, 7] was 1.4 and the “Fold change PPAR gamma” value [3, 7] was 1.3. For the same compound, the “Fold change Succinyl CoA ligase alpha” value [3, 7] was 1.3, the “Fold change 12-lipooxygenase” value [3, 8] was −1.3 and the “Fold change ADAMTS-2” value [3, 8] was −1.3. For the same compound, the “Fold change ADAMTS-10” value [3, 8] was −1.3, the “Fold change ADAMTS-16” value [3, 8] was −1.3 and the “Fold change Chondroitan sulfate synthase 1” value [3, 8] was 1.3. The “Fold change Facilitated glucose transporter 9” value [3, 8] was 1.4, the “Fold change Fibronectin 1” value [3, 8] was 1.4 and the “Fold change Lysyl hydroxylase” value [3, 8] was 1.3. The “Fold change MMP2” value [3, 8] was −1.3, the “Fold change MMP7” value [3, 8] was −1.3 and the “Fold change N-acetylgalactosaminyl-transferase 1” value [3, 8] was 1.3. The “Fold change Transforming growth factor beta receptor 1” value [3, 8] was 1.3, the “Fold change chondroitan sulfate proteoglycan 2 (veriscan)” value [3, 8] was 1.5 and the “Fold change 5′ AMP alpha 1” value [3, 9] was 1.3. The “Fold change 5′ AMP beta 1” value [3, 9] was 1.3, the “Fold change 5′ AMP gamma 2” value [3, 9] was 1.5 and the “Fold change Facilitated glucose transporter 1” value [3, 9] was 1.3. The “Fold change Facilitated glucose transporter 6” value [3, 9] was 1.4, the “Fold change Hexokinase 3” value [3, 9] was 1.3 and the “Fold change PDK4” value [3, 9] was 1.6. The “Fold change PPAR gamma” value [3, 9] was 1.3, the “Fold change SREBP-1” value [3, 9] was −1.3 and the “Fold change Succinyl CoA ligase alpha” value [3, 9] was 1.3. For the same compound, the “Fold change Succinyl CoA ligase beta” value [3, 9] was 1.3, the “Fold change cAMP responsice element modulator” value [3, 9] was 1.3 and the “metabolite hydroxyproline in plasma” value (Plasma metabolomics) was “reduced”. The “Directional change MMP3 (1582602_at)” value (canine bone cells) was “down regulation and Down”, the “Directional change Prolyl 4-hydroxylase (1600479_at)” value (canine bone cells) was “up-regulation and up” and the “Directional change TIMP2 (1582708_at)” value (canine bone cells) was “up-regulation and up”. For the same compound, the Body fat [4] was “lost fat”.
